# Results taken from patent US20250163038A1, “CBL-B MODULATORS AND USES THEREOF” (Nimbus Clio, Inc., priority 2021, published 2025).
# Where two headings read alike, the source gives them in different places.
# Experiments:
# [1] = target: Recombinant human Cbl-b (aa 36-427) (Homo sapiens, UniProt Q13191); experiment: Cbl-b Biochemical Assay (TR-FRET); conditions: read-out: TR-FRET hCbl-b IC50
# [2] = target: T1, Recombinant human c-Cbl (aa 47-435) (Homo sapiens, UniProt P22681); experiment: c-Cbl Biochemical Assay (TR-FRET); conditions: hc-Cbl Biochemical Assay (TR-FRET); read-out: TR-FRET hcCbl IC50
# T1 sequence (P22681 47-435): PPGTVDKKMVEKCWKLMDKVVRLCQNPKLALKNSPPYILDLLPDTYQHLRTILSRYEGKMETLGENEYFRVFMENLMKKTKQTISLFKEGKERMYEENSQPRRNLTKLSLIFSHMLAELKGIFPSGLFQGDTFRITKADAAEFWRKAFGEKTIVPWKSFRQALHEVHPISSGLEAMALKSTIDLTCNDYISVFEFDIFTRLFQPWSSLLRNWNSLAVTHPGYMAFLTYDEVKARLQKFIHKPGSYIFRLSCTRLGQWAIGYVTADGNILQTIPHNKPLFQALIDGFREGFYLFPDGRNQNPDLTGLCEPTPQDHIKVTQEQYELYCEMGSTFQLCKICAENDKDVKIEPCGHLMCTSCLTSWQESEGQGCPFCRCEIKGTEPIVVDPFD
# [3] = test system: Jurkat (clone E6-1) cells with NFAT luciferase reporter; experiment: Jurkat reporter assay (NFAT Luciferase); assay type: cell-based; conditions: Homo sapiens
# [4] = Jurkat NFAT luciferase reporter cells, anti-CD3 stimulation, 6 hr, read-out: Jurkat NFAT EC50
# [5] = Jurkat, 6 h, read-out: Jurkat NFAT EC50 (μM)
# Sequence of Recombinant human Cbl-b (aa 36-427) (Q13191 36-427): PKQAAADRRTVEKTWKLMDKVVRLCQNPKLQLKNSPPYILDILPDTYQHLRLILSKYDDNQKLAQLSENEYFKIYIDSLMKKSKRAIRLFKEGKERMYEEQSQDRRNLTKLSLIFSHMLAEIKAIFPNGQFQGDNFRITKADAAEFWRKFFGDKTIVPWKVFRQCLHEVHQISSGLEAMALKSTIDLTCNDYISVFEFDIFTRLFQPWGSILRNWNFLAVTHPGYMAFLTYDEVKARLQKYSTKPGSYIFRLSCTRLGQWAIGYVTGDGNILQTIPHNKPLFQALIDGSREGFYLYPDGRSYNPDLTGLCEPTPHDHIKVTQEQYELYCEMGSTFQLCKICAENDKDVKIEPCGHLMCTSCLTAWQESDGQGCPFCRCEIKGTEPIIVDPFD
Compound,IC50 [1] [nM],IC50 [2] [nM],"EC50 [3, 4] [µM]","EC50 [3, 5] [µM]"
"CC(=O)NCCNCc1cc(C(F)(F)F)c2oc(-c3cccc(-c4ccc(F)cc4-c4nncn4C)c3)nc2c1 [HD-2, N-(2-(((2-(4′-Fluoro-2′-(4-methyl-4H-1,2,4-triazol-3-yl)-[1,1′-biphenyl]-3-yl)-7-(trifluoromethyl)benzo[d]oxazol-5-yl)methyl)amino)ethyl)acetamide]",< 200,< 200,0.2 to 1,–
"Cn1cnnc1-c1cc(F)ccc1-c1cccc(-c2nc3cc(CNCC(=O)N4CCC4)cc(C(F)(F)F)c3o2)c1 [HE-4, 1-(Azetidin-1-yl)-2-(((2-(4′-fluoro-2′-(4-methyl-4H-1,2,4-triazol-3-yl)-[1,1′-biphenyl]-3-yl)-7-(trifluoromethyl)benzo[d]oxazol-5-yl)methyl)amino)ethan-1-one]",< 200,< 200,1 to 10,–
"COc1cc(CN[C@@H]2C[C@H](O)C2(C)C)cc2nc(-c3cccc(-c4ccc(F)cc4-c4nncn4C)c3)oc12 [HF-1, (1S,3R)-3-(((2-(4′-Fluoro-2′-(4-methyl-4H-1,2,4-triazol-3-yl)-[1,1′-biphenyl]-3-yl)-7-methoxybenzo[d]oxazol-5-yl)methyl)amino)-2,2-dimethylcyclobutan-1-ol]",< 200,200 to 1000,1 to 10,–
"Cn1cnnc1-c1cc(F)ccc1-c1cccc(-c2nc3cc(CN[C@@H]4CCC[C@@H]4O)cc(Cl)c3o2)c1 [HG-7, (1S,2R)-2-(((7-Chloro-2-(4′-fluoro-2′-(4-methyl-4H-1,2,4-triazol-3-yl)-[1,1′-biphenyl]-3-yl)benzo[d]oxazol-5-yl)methyl)amino)cyclopentan-1-ol]",< 200,< 200,–,< 0.2
"Cn1cnnc1-c1cc(F)ccc1-c1cccc(-c2nc3cc(CN[C@@H]4CCC[C@@H]4O)cc(C#N)c3o2)c1 [HH-3, 2-(4′-Fluoro-2′-(4-methyl-4H-1,2,4-triazol-3-yl)-[1,1′-biphenyl]-3-yl)-5-((((1R,2S)-2-hydroxycyclopentyl)amino)methyl)benzo[d]oxazole-7-carbonitrile]",< 200,< 200,–,< 0.2
"Cn1cnnc1-c1cc(F)ccc1-c1cccc(-c2nc3cc(CN[C@H]4CCC[C@H]4O)cc(C(F)(F)F)c3o2)c1 [HI-2, (1R,2S)-2-(((2-(4′-Fluoro-2′-(4-methyl-4H-1,2,4-triazol-3-yl)-[1,1′-biphenyl]-3-yl)-7-(trifluoromethyl)benzo[d]oxazol-5-yl)methyl)amino)cyclopentan-1-ol]",< 200,< 200,< 0.2,–
"Cn1cnnc1-c1cc(F)ccc1-c1cccc(-c2nc3cc(CNCC4(C)CCC4)cc(C(F)(F)F)c3o2)c1 [HK-2, 1-(2-(4′-Fluoro-2′-(4-methyl-4H-1,2,4-triazol-3-yl)-[1,1′-biphenyl]-3-yl)-7-(trifluoromethyl)benzo[d]oxazol-5-yl)-N-((1-methylcyclobutyl)methyl)methanamine]",< 200,< 200,< 0.2,–
"Cn1cnnc1-c1cc(F)ccc1-c1cccc(-c2nc3cc(CNC[C@@]4(C)CCO4)cc(C(F)(F)F)c3o2)c1 [HL-2, (R)-1-(2-(4′-Fluoro-2′-(4-methyl-4H-1,2,4-triazol-3-yl)-[1,1′-biphenyl]-3-yl)-7-(trifluoromethyl)benzo[d]oxazol-5-yl)-N-((2-methyloxetan-2-yl)methyl)methanamine]",< 200,< 200,0.2 to 1,–
"Cn1cnnc1-c1cc(F)ccc1-c1cccc(-c2nc3cc(CNC4CC4)cc(C(F)(F)F)c3o2)c1 [HO-2, N-((2-(4′-Fluoro-2′-(4-methyl-4H-1,2,4-triazol-3-yl)-[1,1′-biphenyl]-3-yl)-7-(trifluoromethyl)benzo[d]oxazol-5-yl)methyl)cyclopropanamine]",< 200,< 200,< 0.2,–
"CC(C)CC1(CNCc2cc(C(F)(F)F)c3oc(-c4cccc(-c5ccc(F)cc5-c5nncn5C)c4)nc3c2)CCC1 [HQ-2, 1-(2-(4′-Fluoro-2′-(4-methyl-4H-1,2,4-triazol-3-yl)-[1,1′-biphenyl]-3-yl)-7-(trifluoromethyl)benzo[d]oxazol-5-yl)-N-((1-isobutylcyclobutyl)methyl)methanamine]",< 200,< 200,0.2 to 1,–
"Cc1cc(CN(C)[C@@H]2CCC[C@@H]2O)cc2nc(-c3cccc(-c4ccc(F)cc4-c4nncn4C)c3)oc12 [HY-3, (1S,2R)-2-(((2-(4′-Fluoro-2′-(4-methyl-4H-1,2,4-triazol-3-yl)-[1,1′-biphenyl]-3-yl)-7-methylbenzo[d]oxazol-5-yl)methyl)(methyl)amino)cyclopentan-1-ol]",< 200,< 200,0.2 to 1,–
"Cn1cnnc1-c1cc(F)ccc1-c1cccc(-c2nc3cc(NCCN4CCC4)cc(C(F)(F)F)c3o2)c1 [HZ-2, N-(2-(Azetidin-1-yl)ethyl)-2-(4′-fluoro-2′-(4-methyl-4H-1,2,4-triazol-3-yl)-[1,1′-biphenyl]-3-yl)-7-(trifluoromethyl)benzo[d]oxazol-5-amine]",< 200,200 to 1000,1 to 10,–

# Second part, led by results:
IC50 [1] [nM],IC50 [2] [nM],"EC50 [3, 4] [µM]",Compound,"EC50 [3, 5] [µM]"
< 200,200 to 1000,1 to 10,"CN(C)CC(=O)NCc1cc(C(F)(F)F)c2oc(-c3cccc(-c4ccc(F)cc4-c4nncn4C)c3)nc2c1 [HC-2, 2-(Dimethylamino)-N-((2-(4′-fluoro-2′-(4-methyl-4H-1,2,4-triazol-3-yl)-[1,1′-biphenyl]-3-yl)-7-(trifluoromethyl)benzo[d]oxazol-5-yl)methyl)acetamide]",–
< 200,< 200,< 0.2,"Cn1cnnc1-c1cc(F)ccc1-c1cccc(-c2nc3cc(CN[C@H]4CCC[C@@H]4O)cc(C(F)(F)F)c3o2)c1 [HJ-1, (1S,2S)-2-(((2-(4′-Fluoro-2′-(4-methyl-4H-1,2,4-triazol-3-yl)-[1,1′-biphenyl]-3-yl)-7-(trifluoromethyl)benzo[d]oxazol-5-yl)methyl)amino)cyclopentan-1-ol]",–
1000 to 10000,1000 to 10000,1 to 10,"Cn1cnnc1-c1cc(F)ccc1-c1cccc(-c2nc3cc(NCCC4CCCC4)cc(C(F)(F)F)c3o2)c1 [HM-3, N-(2-Cyclopentylethyl)-2-(4′-fluoro-2′-(4-methyl-4H-1,2,4-triazol-3-yl)-[1,1′-biphenyl]-3-yl)-7-(trifluoromethyl)benzo[d]oxazol-5-amine]",–
< 200,< 200,0.2 to 1,"Cn1cnnc1-c1cc(F)ccc1-c1cccc(-c2nc3cc(CNCCC4CCCC4)cc(C(F)(F)F)c3o2)c1 [HN-1, 2-Cyclopentyl-N-((2-(4′-fluoro-2′-(4-methyl-4H-1,2,4-triazol-3-yl)-[1,1′-biphenyl]-3-yl)-7-(trifluoromethyl)benzo[d]oxazol-5-yl)methyl)ethan-1-amine]",–
< 200,< 200,< 0.2,"CCC1(CNCc2cc(C(F)(F)F)c3oc(-c4cccc(-c5ccc(F)cc5-c5nncn5C)c4)nc3c2)CCC1 [HP-2, 1-(1-Ethylcyclobutyl)-N-((2-(4′-fluoro-2′-(4-methyl-4H-1,2,4-triazol-3-yl)-[1,1′-biphenyl]-3-yl)-7-(trifluoromethyl)benzo[d]oxazol-5-yl)methyl)methanamine]",–
< 200,< 200,< 0.2,"CN(Cc1cc(Cl)c2oc(-c3cccc(-c4ccc(F)cc4-c4nncn4C)c3)nc2c1)[C@@H]1CCC[C@@H]1O [HS-3, (1S,2R)-2-(((7-Chloro-2-(4′-fluoro-2′-(4-methyl-4H-1,2,4-triazol-3-yl)-[1,1′-biphenyl]-3-yl)benzo[d]oxazol-5-yl)methyl)(methyl)amino)cyclopentan-1-ol]",–
< 200,< 200,0.2 to 1,"COc1cc(CN(C)[C@@H]2CCC[C@@H]2O)cc2nc(-c3cccc(-c4ccc(F)cc4-c4nncn4C)c3)oc12 [HT-3, (1S,2R)-2-(((2-(4′-Fluoro-2′-(4-methyl-4H-1,2,4-triazol-3-yl)-[1,1′-biphenyl]-3-yl)-7-methoxybenzo[d]oxazol-5-yl)methyl)(methyl)amino)cyclopentan-1-ol]",–
200 to 1000,1000 to 10000,10 to 50,"Cn1cnnc1-c1cc(F)ccc1-c1cccc(-c2nc3cc(N[C@@H]4CCC[C@@H]4O)cc(C(F)(F)F)c3o2)c1 [HV-3, (1S,2R)-2-((2-(4′-Fluoro-2′-(4-methyl-4H-1,2,4-triazol-3-yl)-[1,1′-biphenyl]-3-yl)-7-(trifluoromethyl)benzo[d]oxazol-5-yl)amino)cyclopentan-1-ol]",–
< 200,< 200,0.2 to 1,"Cn1cnnc1-c1cc(F)ccc1-c1cccc(-c2nc3cc(CNCC4(F)CCC4)cc(C(F)(F)F)c3o2)c1 [HW-2, 1-(2-(4′-Fluoro-2′-(4-methyl-4H-1,2,4-triazol-3-yl)-[1,1′-biphenyl]-3-yl)-7-(trifluoromethyl)benzo[d]oxazol-5-yl)-N-((1-fluorocyclobutyl)methyl)methanamine]",–
< 200,< 200,< 0.2,"Cn1cnnc1-c1cc(F)ccc1-c1cccc(-c2nc3cc(CN[C@@H]4CCC[C@@H]4O)c(F)c(F)c3o2)c1 [HX-8, (1S,2R)-2-(((6,7-Difluoro-2-(4′-fluoro-2′-(4-methyl-4H-1,2,4-triazol-3-yl)-[1,1′-biphenyl]-3-yl)benzo[d]oxazol-5-yl)methyl)amino)cyclopentan-1-ol]",–
